In PMC5218480 (PLoS ONE, 2017):

Tested on: MV-4-11 cells
Assay: Gene expression microarray analysis (Affymetrix PrimeView) and GSEA
Type: cell-based, human
Parameters: RFU PODN (11730768_x_at) / Fold change /veh PODN (11730768_x_at) / RFU LINC00158 (11744669_a_at) / Fold change /veh LINC00158 (11744669_a_at) / RFU DUSP10 (11751237_a_at) / Fold change /veh DUSP10 (11751237_a_at) / RFU ID3 (11757404_x_at) / Fold change /veh ID3 (11757404_x_at) / RFU PLEKHG5 (11737974_s_at) / Fold change /veh PLEKHG5 (11737974_s_at) / RFU LRRC4B (11730491_at) / Fold change /veh LRRC4B (11730491_at) / RFU GIMAP4 (11747438_a_at) / Fold change /veh GIMAP4 (11747438_a_at) / RFU KRT8 (11758183_x_at) / Fold change /veh KRT8 (11758183_x_at) / RFU CNN1 (11734310_a_at) / Fold change /veh CNN1 (11734310_a_at) / RFU VPS37D (11726825_at) / Fold change /veh VPS37D (11726825_at) / RFU C10orf10 (11716522_x_at) / Fold change /veh C10orf10 (11716522_x_at) / RFU KIR2DL2 /// KIR2DL4 /// KIR2DL5A /// KIR2DL5B /// KIR2DS1 /// KIR2DS2 /// KIR2DS3 /// KIR2DS4 /// KIR3DL3 /// KIR3DL3 /// KIR3DS1 (11738374_at) / Fold change /veh KIR2DL2 /// KIR2DL4 /// KIR2DL5A /// KIR2DL5B /// KIR2DS1 /// KIR2DS2 /// KIR2DS3 /// KIR2DS4 /// KIR3DL3 /// KIR3DL3 /// KIR3DS1 (11738374_at) / RFU C1QL1 (11718748_at) / Fold change /veh C1QL1 (11718748_at) / RFU TMPRSS4 (11747572_a_at) / Fold change /veh TMPRSS4 (11747572_a_at) / RFU HAMP (11756126_x_at) / Fold change /veh HAMP (11756126_x_at) / RFU RNFT2 (11725882_a_at) / Fold change /veh RNFT2 (11725882_a_at) / RFU NR4A2 (11747474_a_at) / Fold change /veh NR4A2 (11747474_a_at) / RFU ABCC12 (11746883_a_at) / Fold change /veh ABCC12 (11746883_a_at) / RFU TMEM136 (11760407_x_at) / Fold change /veh TMEM136 (11760407_x_at) / RFU CLDN22 /// WWC2 (11732394_at) / Fold change /veh CLDN22 /// WWC2 (11732394_at) / RFU HLA-DPB1 (11760878_x_at) / Fold change /veh HLA-DPB1 (11760878_x_at) / RFU SPINT1 (11716480_a_at) / Fold change /veh SPINT1 (11716480_a_at) / RFU GAP43 (11754022_s_at) / Fold change /veh GAP43 (11754022_s_at) / RFU A4GNT (11735810_at) / Fold change /veh A4GNT (11735810_at) / RFU PRB3 (11715151_x_at) / Fold change /veh PRB3 (11715151_x_at) / RFU TUBB4B (11761932_at) / Fold change /veh TUBB4B (11761932_at) / RFU CAPN14 (11732068_a_at) / Fold change /veh CAPN14 (11732068_a_at) / RFU TMCC2 (11721928_a_at) / Fold change /veh TMCC2 (11721928_a_at) / RFU IRGQ (11745062_a_at) / Fold change /veh IRGQ (11745062_a_at) / RFU FAM174B (11720279_a_at) / Fold change /veh FAM174B (11720279_a_at) / RFU TMPRSS4 (11748680_a_at) / Fold change /veh TMPRSS4 (11748680_a_at) / RFU FAM212B (11763350_a_at) / Fold change /veh FAM212B (11763350_a_at) / RFU PLEKHG5 (11743358_a_at) / Fold change /veh PLEKHG5 (11743358_a_at) / RFU ZSCAN30 (11745921_a_at) / Fold change /veh ZSCAN30 (11745921_a_at) / RFU CMKLR1 (11741424_a_at) / Fold change /veh CMKLR1 (11741424_a_at) / RFU LOC101060620 /// MAPK8IP1 (11723275_at) / Fold change /veh LOC101060620 /// MAPK8IP1 (11723275_at) / RFU SPTSSB (11747773_x_at) / Fold change /veh SPTSSB (11747773_x_at) / RFU PRSS12 (11739890_at) / Fold change /veh PRSS12 (11739890_at) / RFU BIN1 (11741810_x_at) / Fold change /veh BIN1 (11741810_x_at) / RFU WNT11 (11732464_a_at) / Fold change /veh WNT11 (11732464_a_at) / RFU C10orf10 (11716521_a_at) / Fold change /veh C10orf10 (11716521_a_at) / RFU C5orf56 (11738089_at) / Fold change /veh C5orf56 (11738089_at) / RFU CYB561 (11721691_x_at) / Fold change /veh CYB561 (11721691_x_at) / RFU ANKRD19P (11752326_a_at) / Fold change /veh ANKRD19P (11752326_a_at) / RFU OR2T12 /// OR2T33 /// OR2T8 (11738714_s_at) / Fold change /veh OR2T12 /// OR2T33 /// OR2T8 (11738714_s_at) / RFU VCAN (11748164_a_at) / Fold change /veh VCAN (11748164_a_at) / RFU JSRP1 (11732532_at) / Fold change /veh JSRP1 (11732532_at) / RFU KRTAP10-11 (11738290_x_at) / Fold change /veh KRTAP10-11 (11738290_x_at) / RFU MYO3A (11730013_a_at) / Fold change /veh MYO3A (11730013_a_at) / RFU EBF3 (11725865_a_at) / Fold change /veh EBF3 (11725865_a_at) / RFU CAMK2N1 (11719241_x_at) / Fold change /veh CAMK2N1 (11719241_x_at) / RFU C5orf56 (11738088_a_at) / Fold change /veh C5orf56 (11738088_a_at) / RFU OLFML3 (11715873_a_at) / Fold change /veh OLFML3 (11715873_a_at) / RFU LOC100653217 /// NTM (11731650_a_at) / Fold change /veh LOC100653217 /// NTM (11731650_a_at) / RFU MAPK11 (11762145_a_at) / Fold change /veh MAPK11 (11762145_a_at) / RFU FIZ1 (11724087_x_at) / Fold change /veh FIZ1 (11724087_x_at) / RFU OASL (11726364_x_at) / Fold change /veh OASL (11726364_x_at) / RFU SOX15 (11748057_x_at) / Fold change /veh SOX15 (11748057_x_at) / RFU CD79A (11719716_a_at) / Fold change /veh CD79A (11719716_a_at) / RFU HIST1H1D (11736915_at) / Fold change /veh HIST1H1D (11736915_at) / RFU CASKIN2 (11723855_a_at) / Fold change /veh CASKIN2 (11723855_a_at) / RFU LOC730098 (11760151_x_at) / Fold change /veh LOC730098 (11760151_x_at) / RFU OR4N2 (11742367_at) / Fold change /veh OR4N2 (11742367_at) / RFU PRRT2 (11749266_a_at) / Fold change /veh PRRT2 (11749266_a_at) / RFU SNX32 (11753110_a_at) / Fold change /veh SNX32 (11753110_a_at) / RFU CDHR5 (11726645_a_at) / Fold change /veh CDHR5 (11726645_a_at) / RFU RCAN1 (11760418_a_at) / Fold change /veh RCAN1 (11760418_a_at) / RFU FAM167A (11723789_a_at) / Fold change /veh FAM167A (11723789_a_at) / RFU FAM26E (11764081_at) / Fold change /veh FAM26E (11764081_at) / RFU ISYNA1 (11749810_s_at) / Fold change /veh ISYNA1 (11749810_s_at) / RFU ACY1 (11761880_at) / Fold change /veh ACY1 (11761880_at) / RFU 11764098_at / Fold change /veh 11764098_at / RFU SAMD14 (11745864_x_at) / Fold change /veh SAMD14 (11745864_x_at) / RFU NPB (11741838_a_at) / Fold change /veh NPB (11741838_a_at) / RFU TMPRSS6 (11731388_a_at) / Fold change /veh TMPRSS6 (11731388_a_at) / RFU KRTAP10-2 (11738614_at) / Fold change /veh KRTAP10-2 (11738614_at) / RFU ARHGAP8 /// PRR5-ARHGAP8 (11727945_x_at) / Fold change /veh ARHGAP8 /// PRR5-ARHGAP8 (11727945_x_at) / RFU KRTAP5-7 /// NADSYN1 (11734609_at) / Fold change /veh KRTAP5-7 /// NADSYN1 (11734609_at) / RFU RASL12 (11751679_a_at) / Fold change /veh RASL12 (11751679_a_at) / RFU CDKN2B (11736163_a_at) / Fold change /veh CDKN2B (11736163_a_at) / RFU PRF1 (11729649_at) / Fold change /veh PRF1 (11729649_at) / RFU, ZNF638 /// ZNF638-IT1 / Fold change vs veh, ZNF638 /// ZNF638-IT1 / RFU, PANK3 / Fold change vs veh, PANK3 / RFU, SH3YL1 / Fold change vs veh, SH3YL1 / RFU, ZEB2 / Fold change vs veh, ZEB2 / RFU, NRIP1 / Fold change vs veh, NRIP1 / RFU, PTTG1IP / Fold change vs veh, PTTG1IP / RFU, CAPN2 / Fold change vs veh, CAPN2 / RFU, MED14 / Fold change vs veh, MED14 / RFU, SNORA58 / Fold change vs veh, SNORA58 / RFU, C1orf63 / Fold change vs veh, C1orf63 / RFU, LRRFIP1 / Fold change vs veh, LRRFIP1 / RFU, NDUFAF7 / Fold change vs veh, NDUFAF7 / RFU, SLC12A2 / Fold change vs veh, SLC12A2 / RFU, IBTK / Fold change vs veh, IBTK / RFU, ESF1 / Fold change vs veh, ESF1 / Fold change vs veh, TMEM50B / RFU, TAOK1 / Fold change vs veh, TAOK1 / RFU, ACBD3 / Fold change vs veh, ACBD3 / RFU, TMA16 / Fold change vs veh, TMA16 / RFU, RWDD3 / Fold change vs veh, RWDD3 / RFU, BCAT1 / Fold change vs veh, BCAT1 / RFU, EDEM3 / Fold change vs veh, EDEM3 / RFU, TMEM33 / Fold change vs veh, TMEM33 / RFU, WDR75 / Fold change vs veh, WDR75 / RFU, AHCTF1 / Fold change vs veh, AHCTF1 / RFU, TFRC / Fold change vs veh, TFRC / RFU, ZDHHC17 / Fold change vs veh, ZDHHC17 / RFU, NOM1 / Fold change vs veh, NOM1 / RFU, ARL8B / Fold change vs veh, ARL8B / RFU, ZBTB11 / Fold change vs veh, ZBTB11 / RFU, TAMM41 / Fold change vs veh, TAMM41 / RFU, KIAA1704 /// LOC100996395 / Fold change vs veh, KIAA1704 /// LOC100996395 / RFU, ING1 / Fold change vs veh, ING1 / RFU, TRMT61B / Fold change vs veh, TRMT61B / RFU, FUBP3 / Fold change vs veh, FUBP3 / RFU, TP53 / Fold change vs veh, TP53 / RFU, TNKS2 / Fold change vs veh, TNKS2 / RFU, ZFP14 / Fold change vs veh, ZFP14 / RFU, ACTR2 / Fold change vs veh, ACTR2 / RFU, PPP3R1 / Fold change vs veh, PPP3R1 / RFU, PIK3R1 / Fold change vs veh, PIK3R1 / RFU, HNRNPA1 / Fold change vs veh, HNRNPA1 / RFU, RNF170 / Fold change vs veh, RNF170 / RFU, ZNF28 / Fold change vs veh, ZNF28 / RFU, RNGTT / Fold change vs veh, RNGTT / RFU, OGT / Fold change vs veh, OGT / RFU, BRD1 / Fold change vs veh, BRD1 / RFU, MARS / Fold change vs veh, MARS / RFU, ZNF655 / Fold change vs veh, ZNF655 / RFU, FAHD1 / Fold change vs veh, FAHD1 / RFU, BDP1 / Fold change vs veh, BDP1 / RFU, LRRCC1 / Fold change vs veh, LRRCC1 / RFU, ARID1A / Fold change vs veh, ARID1A / RFU, ZNF146 / Fold change vs veh, ZNF146 / RFU, ZNF330 / Fold change vs veh, ZNF330 / RFU, GPN3 / Fold change vs veh, GPN3 / RFU, C9orf123 / Fold change vs veh, C9orf123 / RFU, N4BP2L2 / Fold change vs veh, N4BP2L2 / RFU, ARFIP1 / Fold change vs veh, ARFIP1 / RFU, FAM179B / Fold change vs veh, FAM179B / RFU, BCL10 / Fold change vs veh, BCL10 / RFU, UHRF1BP1L / Fold change vs veh, UHRF1BP1L / RFU, BET1 / Fold change vs veh, BET1 / RFU, CNOT2 / Fold change vs veh, CNOT2 / RFU, ZNF268 / Fold change vs veh, ZNF268 / Fold change vs veh, ZNF507 / RFU, DGCR2 / Fold change vs veh, DGCR2 / RFU, WDSUB1 / Fold change vs veh, WDSUB1 / Fold change vs veh, HSP90B1 /// MIR3652 / RFU, ADSS / Fold change vs veh, ADSS / RFU, GK / Fold change vs veh, GK / RFU, ZNF148 / Fold change vs veh, ZNF148 / RFU, TAF9 / Fold change vs veh, TAF9 / RFU, SLC1A5 / Fold change vs veh, SLC1A5 / RFU, SLMO2 / Fold change vs veh, SLMO2 / RFU, ABCC4 / Fold change vs veh, ABCC4 / RFU, LOC101060439 /// RAP1B / Fold change vs veh, LOC101060439 /// RAP1B / RFU, RFX7 / Fold change vs veh, RFX7 / RFU, GTPBP10 / Fold change vs veh, GTPBP10 / RFU, CNEP1R1 / Fold change vs veh, CNEP1R1 / RFU, BIVM-ERCC5 /// ERCC5 / Fold change vs veh, BIVM-ERCC5 /// ERCC5 / RFU, ILF3 / Fold change vs veh, ILF3 / RFU 11762660_at / Fold change /veh 11762660_at / RFU VCAN (11757783_s_at) / Fold change /veh VCAN (11757783_s_at) / RFU DDX43 (11728927_at) / Fold change /veh DDX43 (11728927_at) / RFU KRT8 (11758188_x_at) / Fold change /veh KRT8 (11758188_x_at) / RFU NKD1 (11759106_at) / Fold change /veh NKD1 (11759106_at) / RFU SRD5A1 (11742802_a_at) / Fold change /veh SRD5A1 (11742802_a_at) / RFU TPSAB1 /// TPSB2 (11721975_s_at) / Fold change /veh TPSAB1 /// TPSB2 (11721975_s_at) / RFU GSTM3 (11746129_a_at) / Fold change /veh GSTM3 (11746129_a_at) / RFU IL23R (11737362_x_at) / Fold change /veh IL23R (11737362_x_at) / RFU TMEM51 (11727254_a_at) / Fold change /veh TMEM51 (11727254_a_at) / RFU PIWIL2 (11732686_x_at) / Fold change /veh PIWIL2 (11732686_x_at) / RFU ORM1 (11744905_x_at) / Fold change /veh ORM1 (11744905_x_at) / RFU CCDC152 (11743942_at) / Fold change /veh CCDC152 (11743942_at) / RFU ECM1 (11717891_a_at) / Fold change /veh ECM1 (11717891_a_at) / RFU IL23R (11748794_a_at) / Fold change /veh IL23R (11748794_a_at) / RFU TNFAIP8L3 (11732012_x_at) / Fold change /veh TNFAIP8L3 (11732012_x_at) / RFU MBOAT4 (11741988_at) / Fold change /veh MBOAT4 (11741988_at) / RFU 11764193_at / Fold change /veh 11764193_at / RFU TMEM53 (11763286_at) / Fold change /veh TMEM53 (11763286_at) / RFU MAGEB2 (11727129_at) / Fold change /veh MAGEB2 (11727129_at) / RFU TMEM200A (11744735_a_at) / Fold change /veh TMEM200A (11744735_a_at) / RFU CCDC152 (11751479_a_at) / Fold change /veh CCDC152 (11751479_a_at) / RFU FAM211A (11726209_a_at) / Fold change /veh FAM211A (11726209_a_at) / RFU RGS16 (11746705_a_at) / Fold change /veh RGS16 (11746705_a_at) / RFU VCAN (11755009_s_at) / Fold change /veh VCAN (11755009_s_at) / RFU RHOB (11743442_s_at) / Fold change /veh RHOB (11743442_s_at) / RFU RGS16 (11720943_a_at) / Fold change /veh RGS16 (11720943_a_at) / RFU RGS16 (11720944_at) / Fold change /veh RGS16 (11720944_at) / RFU, VPS4B / Fold change vs veh, VPS4B / RFU, CREB1 / Fold change vs veh, CREB1 / RFU, DNAJC13 / Fold change vs veh, DNAJC13 / RFU, GNAQ / Fold change vs veh, GNAQ / RFU, CDK5R1 / Fold change vs veh, CDK5R1 / RFU, ZRANB3 / Fold change vs veh, ZRANB3 / RFU, CUL4A / Fold change vs veh, CUL4A / RFU, CCNY / Fold change vs veh, CCNY / RFU, UFL1 / Fold change vs veh, UFL1 / RFU, COG3 / Fold change vs veh, COG3 / RFU, DIAPH2 / Fold change vs veh, DIAPH2 / RFU, SKA2 / Fold change vs veh, SKA2 / RFU, AFF3 / Fold change vs veh, AFF3 / RFU, LMF1 / Fold change vs veh, LMF1 / RFU, IPO11 / Fold change vs veh, IPO11 / RFU, DFFB / Fold change vs veh, DFFB / RFU, FOXP1 / Fold change vs veh, FOXP1 / RFU, CARD8 / Fold change vs veh, CARD8 / RFU, STRN3 / Fold change vs veh, STRN3 / RFU, ADK / Fold change vs veh, ADK / RFU, RASSF2 / Fold change vs veh, RASSF2 / RFU, WIPF1 / Fold change vs veh, WIPF1 / RFU, LARP1B / Fold change vs veh, LARP1B / RFU, RASA1 / Fold change vs veh, RASA1 / RFU, RB1 / Fold change vs veh, RB1 / RFU, PPFIA1 / Fold change vs veh, PPFIA1 / RFU, MAT2A / Fold change vs veh, MAT2A / RFU, CCT5 / Fold change vs veh, CCT5 / RFU, WDR92 / Fold change vs veh, WDR92 / RFU, CUX1 / Fold change vs veh, CUX1 / RFU, TTC7A / Fold change vs veh, TTC7A / RFU, TMEM135 / Fold change vs veh, TMEM135 / RFU, DEPTOR / Fold change vs veh, DEPTOR / RFU, CPM / Fold change vs veh, CPM / RFU, DNAJB6 / Fold change vs veh, DNAJB6 / RFU, CACNA2D3 / Fold change vs veh, CACNA2D3 / RFU, DTX4 / Fold change vs veh, DTX4 / RFU, TFCP2 / Fold change vs veh, TFCP2 / RFU, GMCL1 /// GMCL1P1 / Fold change vs veh, GMCL1 /// GMCL1P1 / RFU, AEBP2 / Fold change vs veh, AEBP2 / RFU, SNHG1 /// SNORD22 /// SNORD25 /// SNORD26 /// SNORD27 /// SNORD28 /// SNORD29 /// SNORD31 / Fold change vs veh, SNHG1 /// SNORD22 /// SNORD25 /// SNORD26 /// SNORD27 /// SNORD28 /// SNORD29 /// SNORD31 / Fold change (Aza/veh), C12orf56 (ProbeSet 11735607_a_at) / Fold change (ACY-1035/veh), C12orf56 (ProbeSet 11735607_a_at) / Fold change (Aza/veh), FGFR1OP (ProbeSet 11751329_s_at) / Fold change (ACY-1035/veh), FGFR1OP (ProbeSet 11751329_s_at) / Fold change (Aza/veh), VPS36 (ProbeSet 11739960_a_at) / Fold change (ACY-1035/veh), VPS36 (ProbeSet 11739960_a_at) / RFU SYPL1 (11715823_x_at) / Fold change /veh SYPL1 (11715823_x_at) / RFU IGFBP7 (11715501_s_at) / Fold change /veh IGFBP7 (11715501_s_at) / RFU REEP3 (11722064_at) / Fold change /veh REEP3 (11722064_at) / RFU IGLL1 (11728026_x_at) / Fold change /veh IGLL1 (11728026_x_at): dose or concentration left out as unconfirmed
Settings: ProbeSet 11753055_s_at; LIST B

## Nc1ccc(-c2cccs2)cc1NC(=O)c1ccc2c(c1)cc(C1CC1)n2CCN1CCOCC1 [ACY-1035]
  RFU, LOC101060439 /// RAP1B: 639.03 RFU
